Laboratory results as given in article PMC8009478, “Novel Curcumin-Diethyl Fumarate Hybrid as a Dualistic GSK-3β Inhibitor/Nrf2 Inducer for the Treatment of Parkinson’s Disease” (ACS Chemical Neuroscience, 2020).

Tests used:
SH-SY5Y cells = experiment: Neuroprotection against Aβ1–42 oligomers, MTT assay; type: cell-based, human; settings: 5 μM for 24 h, then OAβ1–42 10 μM for 4 h
Method: Intracellular accumulation of soluble Aβ1–42 oligomers is responsible for neurotoxic effects, such as neuronal death, and represents a key event in AD pathogenesis.[33] […] Briefly, SH-SY5Y cells were incubated with 5 μM concentration of the selected analogues for 24 h, followed by OAβ1–42 oligomers treatment (10 μM) for 4 h (Figure 6A).
Figure 6 Effects of 4 and 5 on neurotoxicity induced by OAβ1–42 oligomers and 6-OHDA in SH-SY5Y cells. (A) Cells were incubated with 4 and 5 (5 μM, for 24 h) and then treated with OAβ1–42 (10 μM, for 4 h). (B) Cells were incubated with compounds 4 and 5 (5 μM, for 24 h), then treated with 6-OHDA (100 μM, for 2 h), and then starved in complete medium for 22 h. The neurotoxicity was evaluated by an MTT assay. Data are expressed as percentages of neurotoxicity versus cells treated with Aβ1–42 oligomers or 6-OHDA and reported as mean ± SEM of at least three independent experiments (* p < 0.05 versus cells treated with 6-OHDA at one-way ANOVA with the Dunnett post hoc test). […]
Then, cells were treated with Aβ1–42 oligomers for 4 h. The neuroprotective activity, in terms of an increase in intracellular MTT granules, was measured by an MTT assay, as previously described (see the Supporting Information for experimental details).[46]

GSK-3α/β = experiment: Phosphorylation of GSK-3α/β (Ser21/9) by Western blotting; settings: SH-SY5Y, 5 μM, after 1 h of incubation
GSK-3β = GSK-3β (Homo sapiens, UniProt P49841); experiment: Kinetic study of GSK-3β inhibition, competition with ATP (ADP-Glo Kinase Assay); type: biochemical; settings: ATP 1 to 50 μM; inhibitors 5 and 10 μM; substrate 25 μM; double reciprocal plot
Method: Figure 2 Kinetic data for the curcumin-DEF hybrids 5 and 6. In the reaction mixture, the concentration of compounds employed is reported in the plot, the concentration of the substrate is constant (25 μM), and the concentration of ATP changes from 1 to 50 μM. Each point is the mean of two different experiments analyzed in triplicate.
Kinetic experiments were performed using the ADP-Glo Kinase Assay,[42] in which ATP concentration varied from 1 to 50 μM, the concentrations of inhibitors employed were 5 and 10 μM, while the concentration of GS2 was kept constant (25 μM). Graphs (Figure 2) report the double reciprocal plot of the data.

Sequence of GSK-3β (P49841 whole entry): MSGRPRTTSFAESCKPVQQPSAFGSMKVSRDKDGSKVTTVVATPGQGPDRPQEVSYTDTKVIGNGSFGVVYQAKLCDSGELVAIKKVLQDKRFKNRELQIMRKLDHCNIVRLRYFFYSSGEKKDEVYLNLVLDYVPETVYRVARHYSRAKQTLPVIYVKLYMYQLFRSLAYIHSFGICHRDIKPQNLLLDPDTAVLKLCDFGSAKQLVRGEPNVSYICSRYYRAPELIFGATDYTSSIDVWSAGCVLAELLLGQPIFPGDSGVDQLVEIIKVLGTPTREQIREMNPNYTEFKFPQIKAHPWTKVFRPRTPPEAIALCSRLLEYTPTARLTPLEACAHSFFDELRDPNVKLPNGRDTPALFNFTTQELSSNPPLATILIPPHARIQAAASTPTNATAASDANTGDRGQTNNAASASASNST

SMILES	prevention of Aβ1–42 oligomers-induced cell death (SH-SY5Y cells)	phospho-GSK-3α/β (Ser21/9) levels (GSK-3α/β)	mechanism of inhibition as regards competition with ATP (GSK-3β)
CCOC(=O)/C=C/C(C(=O)/C=C/c1ccc(OC)cc1)=C(O)\C=C\c1ccc(OC)cc1 [Compound 4, Ethyl (2E,4Z,6E)-5-Hydroxy-7-(4-methoxyphenyl)-4-((E)-3-(4-methoxyphenyl)acryloyl)hepta-2,4,6-trienoate]	failed to prevent Aβ1–42 oligomers-induced cell death	–	–
CCOC(=O)/C=C/C(C(=O)/C=C/c1ccc(OC)cc1)=C(O)\C=C\c1ccc(OCc2ccccc2)cc1 [Compound 5, Ethyl (2E,4Z,6E)-7-(4-(Benzyloxy)phenyl)-5-hydroxy-4-((E)-3-(4-methoxyphenyl)acryloyl)hepta-2,4,6-trienoate]	failed to prevent Aβ1–42 oligomers-induced cell death	increase phospho-GSK-3α/β (Ser21/9) levels	noncompetitive inhibitors of ATP binding
